Experiments:
Experiment in all cases: radiometric filter-binding kinase assay
[1] = molecular target: MAPKAPK5 (human) (UniProt Q8IW41)
[2] = molecular target: CAMKK2 (human) (UniProt Q96RR4)
[3] = molecular target: FGFR1 (human) (UniProt P11362)
[4] = molecular target: CSK (human) (UniProt P41240)
[5] = molecular target: IRAK4 (human) (UniProt Q9NWZ3)
[6] = molecular target: GSK3B (human) (UniProt P49841)
[7] = molecular target: HIPK3 (human) (UniProt Q9H422)
[8] = molecular target: STK11 CAB39 STRADA (human) (UniProt Q9Y376+Q7RTN6+Q15831)
[9] = molecular target: FLT1 (human) (UniProt P17948)
[10] = molecular target: MAPK11 (human) (UniProt Q15759)
[11] = test system: AKT2 (human), P31751 [S474D]
[12] = molecular target: MINK1 (human) (UniProt Q8N4C8)
[13] = molecular target: MAPK14 (human) (UniProt Q16539)
[14] = molecular target: TAOK1 (human) (UniProt Q7L7X3)
[15] = molecular target: CLK2 (human) (UniProt P49760)
[16] = molecular target: MELK (human) (UniProt Q14680)
[17] = molecular target: CSNK1D (human) (UniProt P48730)
[18] = molecular target: NTRK1 (human) (UniProt P04629)
[19] = molecular target: RPS6KA3 KD1 KD2 (human) (UniProt P51812)
[20] = molecular target: MAP3K1 (human) (UniProt Q13233)
[21] = molecular target: INSR (human) (UniProt P06213)
[22] = test system: LCK (mouse); conditions: accession and sequence are those of the human protein
[23] = molecular target: MAP3K7 TAB1 (human) (UniProt Q15750+O43318)
[24] = molecular target: BRSK1 (human) (UniProt Q8TDC3)
[25] = molecular target: SRC (human) (UniProt P12931)
[26] = molecular target: EPHA2 (human) (UniProt P29317)
[27] = test system: ROCK2 (rat); conditions: accession and sequence are those of the human protein
[28] = molecular target: MARK1 (human) (UniProt Q9P0L2)
[29] = molecular target: RIPK2 (human) (UniProt O43353)
[30] = molecular target: PRKCZ (human) (UniProt Q05513)
[31] = molecular target: DYRK3 (human) (UniProt O43781)
[32] = molecular target: JAK2 JH1 JH2 (human) (UniProt O60674)
[33] = molecular target: IGF1R (human) (UniProt P08069)
[34] = molecular target: HIPK1 (human) (UniProt Q86Z02)
[35] = molecular target: MAPK15 (human) (UniProt Q8TD08)

Chain of MAPK14 (human) (Q16539 whole entry, looked up): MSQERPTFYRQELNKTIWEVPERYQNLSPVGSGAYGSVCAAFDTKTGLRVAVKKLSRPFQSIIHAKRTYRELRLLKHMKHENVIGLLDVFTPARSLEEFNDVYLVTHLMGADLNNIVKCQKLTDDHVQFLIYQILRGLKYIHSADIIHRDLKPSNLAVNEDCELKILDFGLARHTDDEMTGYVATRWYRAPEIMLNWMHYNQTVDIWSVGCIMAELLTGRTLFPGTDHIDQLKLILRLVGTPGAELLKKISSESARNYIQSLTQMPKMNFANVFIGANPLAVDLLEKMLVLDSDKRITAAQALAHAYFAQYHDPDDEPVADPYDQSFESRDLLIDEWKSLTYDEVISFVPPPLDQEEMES
Chain of HIPK3 (human) (Q9H422 whole entry, looked up): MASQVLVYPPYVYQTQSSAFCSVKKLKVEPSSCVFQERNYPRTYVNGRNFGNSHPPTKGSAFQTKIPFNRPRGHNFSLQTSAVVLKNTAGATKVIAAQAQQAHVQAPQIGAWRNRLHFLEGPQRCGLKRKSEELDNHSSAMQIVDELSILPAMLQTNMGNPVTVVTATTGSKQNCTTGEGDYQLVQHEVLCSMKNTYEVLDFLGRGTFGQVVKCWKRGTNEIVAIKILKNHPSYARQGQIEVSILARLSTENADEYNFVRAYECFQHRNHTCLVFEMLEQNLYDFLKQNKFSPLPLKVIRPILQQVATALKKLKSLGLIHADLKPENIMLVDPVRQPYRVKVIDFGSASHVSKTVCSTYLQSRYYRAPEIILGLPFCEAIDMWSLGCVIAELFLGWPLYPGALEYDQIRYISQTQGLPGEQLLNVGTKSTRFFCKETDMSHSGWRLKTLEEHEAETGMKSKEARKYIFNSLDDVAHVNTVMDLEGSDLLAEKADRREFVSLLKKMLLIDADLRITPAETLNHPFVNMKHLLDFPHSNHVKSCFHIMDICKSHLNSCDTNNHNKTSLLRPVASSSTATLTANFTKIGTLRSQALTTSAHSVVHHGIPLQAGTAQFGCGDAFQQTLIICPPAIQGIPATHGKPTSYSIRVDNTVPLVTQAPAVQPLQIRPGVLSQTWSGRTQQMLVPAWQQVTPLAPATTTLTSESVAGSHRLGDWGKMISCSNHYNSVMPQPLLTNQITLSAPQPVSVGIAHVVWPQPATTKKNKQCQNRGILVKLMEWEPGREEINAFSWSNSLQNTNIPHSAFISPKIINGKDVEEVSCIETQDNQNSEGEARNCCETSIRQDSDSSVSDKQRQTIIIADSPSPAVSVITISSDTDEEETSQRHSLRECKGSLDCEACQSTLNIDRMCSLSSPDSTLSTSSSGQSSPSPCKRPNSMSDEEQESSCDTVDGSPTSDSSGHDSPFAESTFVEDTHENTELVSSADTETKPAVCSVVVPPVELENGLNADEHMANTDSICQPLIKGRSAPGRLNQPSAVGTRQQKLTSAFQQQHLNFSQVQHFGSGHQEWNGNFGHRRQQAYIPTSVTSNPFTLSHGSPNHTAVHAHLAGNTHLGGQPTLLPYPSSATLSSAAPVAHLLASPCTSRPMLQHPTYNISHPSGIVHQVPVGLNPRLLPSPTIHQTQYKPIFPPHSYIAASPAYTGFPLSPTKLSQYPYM
Chain of INSR (human) (P06213 whole entry, looked up): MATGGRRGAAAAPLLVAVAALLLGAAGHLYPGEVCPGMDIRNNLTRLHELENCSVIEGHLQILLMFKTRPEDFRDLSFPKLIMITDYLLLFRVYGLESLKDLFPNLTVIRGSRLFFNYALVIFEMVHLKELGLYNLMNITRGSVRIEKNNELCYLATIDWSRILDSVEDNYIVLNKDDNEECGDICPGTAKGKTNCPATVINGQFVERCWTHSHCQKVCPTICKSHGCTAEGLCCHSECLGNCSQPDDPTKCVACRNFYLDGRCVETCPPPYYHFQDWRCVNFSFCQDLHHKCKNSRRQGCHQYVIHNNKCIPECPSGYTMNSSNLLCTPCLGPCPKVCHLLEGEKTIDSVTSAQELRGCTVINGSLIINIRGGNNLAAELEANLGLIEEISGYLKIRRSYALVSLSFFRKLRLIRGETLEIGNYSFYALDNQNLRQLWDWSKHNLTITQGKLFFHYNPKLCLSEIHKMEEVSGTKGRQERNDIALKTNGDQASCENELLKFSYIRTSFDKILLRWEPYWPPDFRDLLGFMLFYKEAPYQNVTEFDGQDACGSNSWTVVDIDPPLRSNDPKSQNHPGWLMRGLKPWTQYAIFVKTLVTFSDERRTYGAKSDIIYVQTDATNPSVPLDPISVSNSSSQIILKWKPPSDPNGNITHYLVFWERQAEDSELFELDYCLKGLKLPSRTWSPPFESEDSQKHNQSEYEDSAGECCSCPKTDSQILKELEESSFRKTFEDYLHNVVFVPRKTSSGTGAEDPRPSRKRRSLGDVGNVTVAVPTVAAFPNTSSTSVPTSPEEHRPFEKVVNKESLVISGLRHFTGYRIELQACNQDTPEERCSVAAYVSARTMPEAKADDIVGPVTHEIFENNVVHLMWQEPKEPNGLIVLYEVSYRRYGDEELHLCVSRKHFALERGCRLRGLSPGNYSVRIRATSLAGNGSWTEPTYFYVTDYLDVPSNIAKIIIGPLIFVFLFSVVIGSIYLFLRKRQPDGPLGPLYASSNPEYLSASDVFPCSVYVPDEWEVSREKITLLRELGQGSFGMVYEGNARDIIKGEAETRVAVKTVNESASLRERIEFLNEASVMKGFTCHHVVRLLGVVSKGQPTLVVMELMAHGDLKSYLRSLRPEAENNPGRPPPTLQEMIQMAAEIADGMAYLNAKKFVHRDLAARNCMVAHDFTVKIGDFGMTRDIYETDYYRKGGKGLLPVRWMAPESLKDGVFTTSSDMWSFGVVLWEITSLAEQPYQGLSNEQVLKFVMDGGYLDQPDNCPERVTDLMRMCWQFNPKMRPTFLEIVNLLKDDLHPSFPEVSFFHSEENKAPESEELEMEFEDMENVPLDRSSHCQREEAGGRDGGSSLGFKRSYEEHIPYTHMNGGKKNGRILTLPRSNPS
Chain of FGFR1 (human) (P11362 whole entry, looked up): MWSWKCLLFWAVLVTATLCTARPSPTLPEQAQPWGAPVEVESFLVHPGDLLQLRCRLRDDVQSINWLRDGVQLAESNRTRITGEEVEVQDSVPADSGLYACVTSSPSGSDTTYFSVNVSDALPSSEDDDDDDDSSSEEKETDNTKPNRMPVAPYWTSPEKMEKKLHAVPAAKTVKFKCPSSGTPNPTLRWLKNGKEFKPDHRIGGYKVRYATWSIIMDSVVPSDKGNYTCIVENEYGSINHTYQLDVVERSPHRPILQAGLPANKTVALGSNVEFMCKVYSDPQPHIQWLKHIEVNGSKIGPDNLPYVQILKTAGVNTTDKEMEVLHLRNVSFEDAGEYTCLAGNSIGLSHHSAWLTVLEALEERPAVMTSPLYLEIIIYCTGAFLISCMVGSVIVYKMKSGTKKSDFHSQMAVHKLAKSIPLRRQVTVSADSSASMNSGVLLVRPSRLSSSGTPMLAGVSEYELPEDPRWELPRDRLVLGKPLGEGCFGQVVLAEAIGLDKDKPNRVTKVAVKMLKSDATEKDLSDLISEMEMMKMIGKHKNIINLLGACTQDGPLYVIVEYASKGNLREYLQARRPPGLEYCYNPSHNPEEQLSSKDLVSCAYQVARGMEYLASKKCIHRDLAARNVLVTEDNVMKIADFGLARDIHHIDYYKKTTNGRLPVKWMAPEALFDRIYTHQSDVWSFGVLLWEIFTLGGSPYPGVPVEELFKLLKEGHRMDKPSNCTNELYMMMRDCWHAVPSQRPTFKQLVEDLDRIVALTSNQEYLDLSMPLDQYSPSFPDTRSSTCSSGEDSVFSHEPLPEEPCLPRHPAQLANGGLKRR
Chain of CAMKK2 (human) (Q96RR4 whole entry, looked up): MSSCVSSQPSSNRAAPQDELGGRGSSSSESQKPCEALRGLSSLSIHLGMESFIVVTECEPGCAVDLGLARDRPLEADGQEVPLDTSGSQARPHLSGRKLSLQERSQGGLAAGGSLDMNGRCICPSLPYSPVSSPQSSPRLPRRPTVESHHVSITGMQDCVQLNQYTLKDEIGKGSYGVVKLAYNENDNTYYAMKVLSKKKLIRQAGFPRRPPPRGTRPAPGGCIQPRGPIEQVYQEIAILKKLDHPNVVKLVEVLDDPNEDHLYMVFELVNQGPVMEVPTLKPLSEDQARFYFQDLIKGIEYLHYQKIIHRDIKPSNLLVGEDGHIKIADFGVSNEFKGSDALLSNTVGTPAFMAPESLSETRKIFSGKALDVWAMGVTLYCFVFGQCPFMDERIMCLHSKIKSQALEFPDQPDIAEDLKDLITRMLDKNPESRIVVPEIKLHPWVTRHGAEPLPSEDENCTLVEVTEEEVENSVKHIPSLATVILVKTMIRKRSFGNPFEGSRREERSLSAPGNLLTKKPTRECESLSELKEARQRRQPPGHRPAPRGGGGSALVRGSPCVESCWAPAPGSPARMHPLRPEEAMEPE
Chain of AKT2 (human), P31751 [S474D] (P31751 whole entry S474D, looked up): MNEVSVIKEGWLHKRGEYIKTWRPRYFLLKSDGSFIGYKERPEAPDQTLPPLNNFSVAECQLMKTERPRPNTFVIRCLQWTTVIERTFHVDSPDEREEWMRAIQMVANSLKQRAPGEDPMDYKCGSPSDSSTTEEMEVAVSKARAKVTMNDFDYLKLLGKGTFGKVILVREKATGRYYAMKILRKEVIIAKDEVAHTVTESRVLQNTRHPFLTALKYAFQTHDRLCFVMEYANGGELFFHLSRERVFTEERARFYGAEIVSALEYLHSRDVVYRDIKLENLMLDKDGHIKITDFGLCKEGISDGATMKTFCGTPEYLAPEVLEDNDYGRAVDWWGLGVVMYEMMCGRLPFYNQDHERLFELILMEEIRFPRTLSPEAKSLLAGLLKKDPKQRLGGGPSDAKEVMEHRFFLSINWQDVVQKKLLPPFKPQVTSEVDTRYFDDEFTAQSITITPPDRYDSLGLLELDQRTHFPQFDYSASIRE

Q: How did the residual activity ([1]; compound 0.1 µM) turn out when O=C(Nc1ccccc1-c1cn2c(CN3CCNCC3)csc2n1)c1cnc2ccccc2n1 was run?
A: 101%

Q: And the residual activity ([1]; compound 1.0 µM)?
A: 91%

Q: What about the residual activity ([1]; compound 10.0 µM) of the same compound?
A: 105%

Q: What about the residual activity ([2]; compound 0.1 µM) of the same compound?
A: 92%

Q: And the residual activity ([2]; compound 1.0 µM)?
A: 83%

Q: And the residual activity ([2]; compound 10.0 µM)?
A: 44%

Q: What about the residual activity ([3]; compound 0.1 µM) of the same compound?
A: 103%

Q: And the residual activity ([3]; compound 1.0 µM)?
A: 91%

Q: And the residual activity ([3]; compound 10.0 µM)?
A: 68%

Q: And the residual activity ([4]; compound 0.1 µM)?
A: 97%

Q: And the residual activity ([4]; compound 1.0 µM)?
A: 85%

Q: What about the residual activity ([4]; compound 10.0 µM) of the same compound?
A: 97%

Q: And the residual activity ([5]; compound 1.0 µM)?
A: 63%

Q: And the residual activity ([5]; compound 10.0 µM)?
A: 24%

Q: What about the residual activity ([6]; compound 1.0 µM) of the same compound?
A: 78%

Q: And the residual activity ([6]; compound 10.0 µM)?
A: 67%

Q: And the residual activity ([7]; compound 0.1 µM)?
A: 88%

Q: What about the residual activity ([7]; compound 1.0 µM) of the same compound?
A: 92%

Q: What about the residual activity ([7]; compound 10.0 µM) of the same compound?
A: 73%

Q: And the residual activity ([8]; compound 1.0 µM)?
A: 93%

Q: What about the residual activity ([8]; compound 10.0 µM) of the same compound?
A: 97%

Q: And the residual activity ([9]; compound 0.1 µM)?
A: 90%

Q: And the residual activity ([9]; compound 1.0 µM)?
A: 89%

Q: And the residual activity ([9]; compound 10.0 µM)?
A: 53%

Q: What about the residual activity ([10]; compound 0.1 µM) of the same compound?
A: 102%

Q: And the residual activity ([10]; compound 1.0 µM)?
A: 89%

Q: And the residual activity ([10]; compound 10.0 µM)?
A: 90%

Q: And the residual activity ([11]; compound 0.1 µM)?
A: 75%

Q: What about the residual activity ([11]; compound 1.0 µM) of the same compound?
A: 70%

Q: What about the residual activity ([11]; compound 10.0 µM) of the same compound?
A: 61%

Q: What about the residual activity ([12]; compound 1.0 µM) of the same compound?
A: 91%

Q: What about the residual activity ([12]; compound 10.0 µM) of the same compound?
A: 55%

Q: What about the residual activity ([13]; compound 0.1 µM) of the same compound?
A: 87%

Q: What about the residual activity ([13]; compound 1.0 µM) of the same compound?
A: 91%

Q: And the residual activity ([13]; compound 10.0 µM)?
A: 99%

Q: What about the residual activity ([14]; compound 1.0 µM) of the same compound?
A: 86%

Q: What about the residual activity ([14]; compound 10.0 µM) of the same compound?
A: 97%

Q: And the residual activity ([15]; compound 1.0 µM)?
A: 60%

Q: And the residual activity ([15]; compound 10.0 µM)?
A: 18%

Q: And the residual activity ([16]; compound 0.1 µM)?
A: 97%

Q: What about the residual activity ([16]; compound 1.0 µM) of the same compound?
A: 74%

Q: And the residual activity ([16]; compound 10.0 µM)?
A: 52%

Q: And the residual activity ([17]; compound 0.1 µM)?
A: 99%

Q: What about the residual activity ([17]; compound 1.0 µM) of the same compound?
A: 106%

Q: What about the residual activity ([17]; compound 10.0 µM) of the same compound?
A: 91%

Q: What about the residual activity ([18]; compound 1.0 µM) of the same compound?
A: 47%

Q: And the residual activity ([18]; compound 10.0 µM)?
A: 30%

Q: What about the residual activity ([19]; compound 1.0 µM) of the same compound?
A: 84%

Q: And the residual activity ([19]; compound 10.0 µM)?
A: 46%

Q: What about the residual activity ([20]; compound 1.0 µM) of the same compound?
A: 92%

Q: And the residual activity ([20]; compound 10.0 µM)?
A: 45%

Q: What about the residual activity ([21]; compound 0.1 µM) of the same compound?
A: 127%

Q: And the residual activity ([21]; compound 1.0 µM)?
A: 101%

Q: And the residual activity ([21]; compound 10.0 µM)?
A: 100%

Q: And the residual activity ([22]; compound 0.1 µM)?
A: 88%

Q: And the residual activity ([22]; compound 1.0 µM)?
A: 106%

Q: And the residual activity ([22]; compound 10.0 µM)?
A: 58%

Q: What about the residual activity ([23]; compound 1.0 µM) of the same compound?
A: 91%

Q: What about the residual activity ([23]; compound 10.0 µM) of the same compound?
A: 86%

Q: And the residual activity ([24]; compound 1.0 µM)?
A: 94%

Q: What about the residual activity ([24]; compound 10.0 µM) of the same compound?
A: 87%

Q: And the residual activity ([25]; compound 0.1 µM)?
A: 85%

Q: What about the residual activity ([25]; compound 1.0 µM) of the same compound?
A: 93%

Q: What about the residual activity ([25]; compound 10.0 µM) of the same compound?
A: 121%

Q: What about the residual activity ([26]; compound 0.1 µM) of the same compound?
A: 97%

Q: And the residual activity ([26]; compound 1.0 µM)?
A: 99%

Q: And the residual activity ([26]; compound 10.0 µM)?
A: 84%

Q: What about the residual activity ([27]; compound 0.1 µM) of the same compound?
A: 100%

Q: And the residual activity ([27]; compound 1.0 µM)?
A: 89%

Q: What about the residual activity ([27]; compound 10.0 µM) of the same compound?
A: 79%

Q: What about the residual activity ([28]; compound 1.0 µM) of the same compound?
A: 85%

Q: What about the residual activity ([28]; compound 10.0 µM) of the same compound?
A: 74%

Q: And the residual activity ([29]; compound 1.0 µM)?
A: 100%

Q: What about the residual activity ([29]; compound 10.0 µM) of the same compound?
A: 95%

Q: What about the residual activity ([30]; compound 0.1 µM) of the same compound?
A: 78%

Q: And the residual activity ([30]; compound 1.0 µM)?
A: 105%

Q: What about the residual activity ([30]; compound 10.0 µM) of the same compound?
A: 103%

Q: What about the residual activity ([31]; compound 0.1 µM) of the same compound?
A: 82%

Q: And the residual activity ([31]; compound 1.0 µM)?
A: 91%

Q: And the residual activity ([31]; compound 10.0 µM)?
A: 64%

Q: What about the residual activity ([32]; compound 1.0 µM) of the same compound?
A: 90%

Q: What about the residual activity ([32]; compound 10.0 µM) of the same compound?
A: 86%

Q: What about the residual activity ([33]; compound 0.1 µM) of the same compound?
A: 92%

Q: And the residual activity ([33]; compound 1.0 µM)?
A: 96%

Q: And the residual activity ([33]; compound 10.0 µM)?
A: 25%

Q: What about the residual activity ([34]; compound 1.0 µM) of the same compound?
A: 104%

Q: And the residual activity ([34]; compound 10.0 µM)?
A: 91%

Q: And the residual activity ([35]; compound 0.1 µM)?
A: 81%

Q: What about the residual activity ([35]; compound 1.0 µM) of the same compound?
A: 96%

Q: What about the residual activity ([35]; compound 10.0 µM) of the same compound?
A: 86%

— the kinase profiling compilation of Christmann-Franck et al. (2016)
